These results are taken from US11274118B2 (priority 2012, dated 2022).

The nature of series [1]: Rat pharmacokinetic profile, i.m. injection. The format is in vivo. The conditions noted are these: rats. How it is done:
PK Animal Methods. Rat PK studies were done in jugular cannulated male SD rats, weighing 250-300 grams. 7 was dosed i.v. and i.m.; 13 was dosed i.m. only. For i.v. dosing 7 was formulated in PEG 300/glycofurol/Tween 80/water (26/5/2/67) and dosed @ 10 mg/kg and 3.3 ml/kg. For i.m. dosing, both compounds were formulated in propylene glycol/Tween 80/50 mM Citrate, pH 5.0 (40/4/56) and dosed @10 mg/kg and 1 ml/kg into the upper leg. Blood samples (0.3 ml) were taken at 0.25, 0.50, 1, 2, 4, 6 & 8 hours in the i.m. experiments; the same time points were used for the i.v. experiment, with the addition of an early 0.08 hr (5 min) time point. Samples were collected in either Li heparin or K EDTA microtainers, centrifuged at 2000×g for 10 minutes. Plasma was then transferred to 2 ml Eppendorf tubes, frozen on dry ice and transferred to a −80° C. freezer for storage until analysis for prodrug, oxime and progesterone by LC/MS/MS, followed by pharmacokinetic analysis by WinNonlin.

For series [2] the following is noted: rat plasma.
Series [3] in a line: In vitro metabolism in human liver microsomes. The conditions noted are these: human liver microsomes at 37° C., 0-60 min. Background: Microsomes from liver hold many membrane-bound enzymes, among them those of drug oxidation.
A further series concerns Primary cortical cells. The series can be described thus: Reduction of neuronal cell death after a glutamate challenge (MTT / LDH release). The format is cell-based. The conditions noted are these: for inhibition at 5 µM: 24 h, read-out: reduction in cell death at a 5 μM dose; for dose at maximum efficacy: primary cortical cells; for Emax: read-out: maximum efficacy, reduction in cell death. A general note: LDH in the medium is a marker of cell lysis.

A short description of series [4]: physchem. Particulars: kinetic from dmso stock.
In series [5] the test system is cerebral edema in rats following bilateral cortical contusion. The conditions noted are these: rat.
For series [6] the following is noted: human plasma.
For series [7] the following is noted: rat, in vivo, iv.
Series [8] in a line: physchem. The conditions noted are these: pH 7.
Series [9] can be described thus: physchem. The conditions noted are these: aqueous with cosolvent or surfactant or cyclodextrin.
Series [10] in a line: Exposure to rat S9 liver fractions. The format is in vitro ADME. Particulars: hydrochloride.
For series [11] the following is noted: buffer.
Series [12] deals with moderate to severe TBI patients. The conditions noted are these: 3 days of intravenous treatment, 100 moderate to severe TBI patients; cited from earlier work.
[13] abbreviates: male, Sprague-Dawley (SD), 10 mg/kg.

In brackets after ≈: the same amount, converted by molar mass. Read-outs that look alike come from different tables or passages of the source.

Consider `CC(=O)[C@H]1CC[C@H]2[C@@H]3CCC4=C/C(=N/OC(=O)[C@@H](N)C(C)C)CC[C@]4(C)[C@H]3CC[C@]12C.Cl` [Compound 1, (S)-1-((E)-((8S,9S,10R,13S,14S,17S)-17-Acetyl-10,13-dimethyl-7,8,9,11-tetrahydro-1H-cyclopenta[a]phenanthren-3 (2H,6H, 1 OH, 12H, 13H, 14H, 15H, 16H, 17H)-ylidene)aminooxy)-2-amino-3-methylbutan-1-one Hydrochloride], for which, in series [1], the “plasma levels of free oxime, parent prodrug and progesterone” value is “generated measurable concentrations of the corresponding oximes without evidence of either the parent prodrug or progesterone”. Also, the conversion to progesterone entry in [2] and in series [6] was “neither of the test compounds were converted to progesterone” in each case. Also, the “metabolism in human liver microsomes” value in series [3] was “hydrolyzed rapidly to the free oxime 2 as well as lesser quantities of progesterone”. For the same molecule, the inhibition at 5 µM in the series on Primary cortical cells came out at 27%. Moreover, in the series on Primary cortical cells (glutamate challenge), the “dose at maximum efficacy” value is 5 µM. In addition, the Emax in the series on Primary cortical cells was 27%. The solubility (commonly how much of the substance goes into solution per volume) at 90 min in “physchem [4]” (pH 4, aqueous buffer) is 322 µM; in “physchem [4]” (pH 7, aqueous buffer), 172 µM. The “activity in in vitro and in vivo models of brain injury TBI” value in series [5] is “activity similar to that of progesterone”. Also, in series [5] (in vivo), the “reduction of brain edema after 24 hours compared to untreated rats” value (“reduction of brain edema after 24 hours” for short) is 59%. Further, the “plasma levels of parent, free oxime and progesterone” value in series [7] (setting [13]) is “hydrolyzed rapidly to provide large concentrations of the free oxime 2 and smaller concentrations of progesterone”.

On to `CC(=O)[C@H]1CC[C@H]2[C@@H]3CCC4=C/C(=N/O)CC[C@]4(C)[C@H]3CC[C@]12C` [Compound 2, 1-((8S,9S,10R,13S,14S,17S,E)-3-(Hydroxyimino)-10,13-dimethyl-2,3,6,7,8,9,10,11,12,13,14,15,16,17-tetradecahydro-1H-cyclopenta[a]phenanthren-17-yl)ethanone], for which, in the series on Primary cortical cells, the inhibition at 5 µM stood at 21% and the Emax came to 21%. Further, the “dose at maximum efficacy” value in the series on Primary cortical cells (glutamate challenge) amounted to 5 µM. Further, the solubility at 90 min in “physchem [4]” (pH 4, aqueous buffer) is below 45 µM. In the series “physchem [4]” (pH 7, aqueous buffer), this molecule came in with a solubility at 90 min below 45 µM. In addition, the “reduction of brain edema” value in series [5] (in vivo, iv, 4 mg/kg) came out at 60%. Besides, the “concentrations of circulating drug” value in series [7] (4 mg/kg) is “micromolar concentrations”. For the same molecule, the half-life (commonly the time needed for the level to fall by half in the phase considered) in “physchem [8]” (buffer) was above 240 h.

In the case of `C/C(=N\O)[C@H]1CC[C@H]2[C@@H]3CCC4=CC(=O)CC[C@]4(C)[C@H]3CC[C@]12C` [Compound 3, (8S,9S,10R,13S,14S,17S)-17-((E)-1-(Hydroxyimino)ethyl)-10,13-dimethyl-6,7,8,9,10,11,12,13,14,15,16,17-dodecahydro-1H-cyclopenta[a]phenanthren-3(2H)-one], under “neutral pH”, the “aqueous solubility” value is on record as “highly insoluble”.

For `CO/N=C(\C)[C@H]1CC[C@H]2[C@@H]3CCC4=CC(=O)CC[C@]4(C)[C@H]3CC[C@]12C` [Compound 4, (8S,9S,10R,13S,14S,17S)-17-((E)-1-(Methoxyimino)ethyl)-10,13-dimethyl-6,7,8,9,10,11,12,13,14,15,16,17-dodecahydro-1H-cyclopenta[a]phenanthren-3(2H)-one], the solubility at 90 min in the series “physchem [4]” (pH 4, aqueous buffer) is below 25 µM; in the series “physchem [4]” (pH 7, aqueous buffer) it was below 25 µM. The half-life in “physchem [8]” (buffer) is above 240 h.

For the molecule `C/C(=N\OCCN1CCOCC1)[C@H]1CC[C@H]2[C@@H]3CCC4=CC(=O)CC[C@]4(C)[C@H]3CC[C@]12C` [Compound 5, (8S,9S,10R,13S,14S,17S)-10,13-Dimethyl-17-((E)-1-(2-morpholinoethoxyimino)ethyl)-6,7,8,9,10,11,12,13,14,15,16,17-dodecahydro-1H-cyclopenta[a]phenanthren-3 (2H)-one], in the series on Primary cortical cells, the inhibition at 5 µM is 26% and the Emax worked out at 26%. Further, the “dose at maximum efficacy” value in the series on Primary cortical cells (glutamate challenge) amounted to 5 µM. In the series “physchem [4]” (pH 4, aqueous buffer), this molecule displayed a solubility at 90 min above 450 µM. In the series “physchem [4]” (pH 7, aqueous buffer), this molecule returned a solubility at 90 min of 108 µM (≈ 47.8 µg/mL). The half-life in “physchem [8]” (buffer) was above 240 h.

Turning to `C/C(=N\OC(=O)[C@@H](N)C(C)C)[C@H]1CC[C@H]2[C@@H]3CCC4=CC(=O)CC[C@]4(C)[C@H]3CC[C@]12C.Cl` [Compound 7, (8S,9S,10R,13 S,14S,17S)-17-((E)-1-((S)-2-Amino-3-methylbutanoyloxyimino)ethyl)-10,13-dimethyl-6,7,8,9,10,11,12,13,14,15,16,17-dodecahydro-1H-cyclopenta[a]phenanthren-3 (2H)-one hydrochloride], in [1], the “Cmax and AUC, compared with 1” value was “significantly higher Cmax and AUC than the relative C-3 oxime 1”; the “plasma levels of free oxime, parent prodrug and progesterone” value is given as “generated measurable concentrations of the corresponding oximes without evidence of either the parent prodrug or progesterone”. Besides, the conversion to progesterone result in [2] was “neither of the test compounds were converted to progesterone”. The molecule further registered a solubility in the series “physchem [9]” of at least 60000 µM. In the series on Primary cortical cells, the inhibition at 5 µM came to 24% and the Emax worked out at 24%. Moreover, the “dose at maximum efficacy” value in the series on Primary cortical cells (glutamate challenge) is 5 µM. Moreover, the solubility at 90 min in “physchem [4]” (pH 4, aqueous buffer) was above 645 µM. For the same molecule, the solubility at 90 min in the series “physchem [4]” (pH 7, aqueous buffer) came to 146 µM. Also, the “reduction of brain edema after 24 hours” value in series [5] (in vivo) turned out to be 56%. The conversion to progesterone entry in series [6] is “neither of the test compounds were converted to progesterone”. In series [7] (setting [13]), the “levels of progesterone produced, compared with compound 1” value is “superior to those generated by compound 1”; the “plasma levels of parent, free oxime and progesterone” value was “low levels of the parent compound 7 was observed, high levels of the relative free oxime 3, and therapeutic levels of progesterone”. Besides, the “metabolism in rat S9 liver fractions” value in series [10] is “relatively stable and no measurable quantities of progesterone were generated”. Moreover, the half-life in “physchem [8]” (buffer) is 11.4 h.

Take `C/C(=N\OC(=O)[C@@H]1CCC[N+]1(C)C)[C@H]1CC[C@H]2[C@@H]3CCC4=CC(=O)CC[C@]4(C)[C@H]3CC[C@]12C.[I-]` [Compound 9, (8S,9S,10R,13S,14S,17S)-10,13-Dimethyl-17-((E)-1-((S)-1,1-Dimethylpyrrolidine-2-carbonyloxyimino)ethyl)-6,7,8,9,10,11,12,13,14,15,16,17-dodecahydro-1H-cyclopenta[a]phenanthren-3(2H)-one iodide]: the solubility at 90 min in “physchem [4]” (pH 4, aqueous buffer) was determined as 345 µM; in “physchem [4]” (pH 7, aqueous buffer), 51 µM. The half-life in “physchem [8]” (buffer) was determined as 0.833 h.

`C/C(=N\OC(=O)CN(C)C)[C@H]1CC[C@H]2[C@@H]3CCC4=CC(=O)CC[C@]4(C)[C@H]3CC[C@]12C` [Compound 10, (8S,9S,10R,13S,14S,17S)-17-((E)-1-(2-(Dimethylamino)acetoxyimino)ethyl)-10,13-dimethyl-6,7,8,9,10,11,12,13,14,15,16,17-dodecahydro-1H-cyclopenta[a]phenanthren-3(2H)-one]: the “Aqueous Stability t1/2 at pH = 7.0” value in [11] amounted to 6.2 h. Also, the solubility at 90 min stood at 449 µM (≈ 186 µg/mL) in the series “physchem [4]” (pH 4, aqueous buffer) and 171 µM (≈ 70.9 µg/mL) in “physchem [4]” (pH 7, aqueous buffer).

As to `C/C(=N\OC(=O)CN1CCN(C)CC1)[C@H]1CC[C@H]2[C@@H]3CCC4=CC(=O)CC[C@]4(C)[C@H]3CC[C@]12C` [Compound 13, (8S,9S,10R,13S,14S,17S)-10,13-Dimethyl-17-((E)-1-(2-(4-methylpiperazin-1-yl)acetoxyimino)ethyl)-6,7,8,9,10,11,12,13,14,15,16,17-dodecahydro-1H-cyclopenta[a]phenanthren-3 (2H)-one], the solubility at 90 min in “physchem [4]” (pH 4, aqueous buffer) came out at 153 µM (≈ 71.9 µg/mL); in “physchem [4]” (pH 7, aqueous buffer) it was 145 µM (≈ 68.1 µg/mL). The half-life in the series “physchem [8]” (buffer) was around 72 h.

Regarding `CC(=O)[C@H]1CC[C@H]2[C@@H]3CCC4=CC(=O)CC[C@]4(C)[C@H]3CC[C@]12C` [PROG, Progesterone, reference compound], the reduction of mortality entry in series [12] is recorded as “over 60%”. The Aqueous solubility – broadly, the dissolved amount per volume that the medium holds – at pH 7 (90 min, pH 7) was below 25 μM. The “efficacy at the 5 μM dose” value in the series with Primary cortical cells (5 μM, glutamate challenge) was “nearly ineffective”. In addition, in the series on Primary cortical cells, the inhibition at 5 µM came to 4% and the Emax was 42%. Further, the “dose at maximum efficacy” value with Primary cortical cells (glutamate challenge) came out at 20 µM. The same molecule had a solubility at 90 min in the series “physchem [4]” (pH 4, aqueous buffer) below 25 µM. In “physchem [4]” (pH 7, aqueous buffer), the solubility at 90 min is below 25 µM. The “reduction of brain edema after 24 hours” value in [5] (in vivo) came to 62%. Moreover, in the series “physchem [8]” (phosphate buffer), the half-life is above 240 h.
